Reference: patent US20240262815A1, “HETEROARYL DERIVATIVE, METHOD FOR PREPARING SAME, AND PHARMACEUTICAL COMPOSITION COMPRISING SAME AS ACTIVE INGREDIENT” (VORONOI INC., priority 2021, published 2024)

Assays:
SK-BR-3 cancer cells = test: Inhibitory activity against proliferation of SK-BR-3 cancer cells (CellTiter-Glo); type: cell-based; details: Homo sapiens, SK-BR-3, 120 h, ErbB2-overexpressing SK-BR-3 cells, 120 hours after treatment
Procedure, shortened: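 GI50 derived from % growth relative to control, measured by CellTiter-Glo luminescence after 120 h compound exposure (12 concentrations, 0.2 nM-5 μM final, n=3). BT-474 grown in RPMI-1640/20% FBS, SK-BR-3 in McCOY'S 5A/10% FBS; seeding 48 h pre-treatment.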

BT-474 cancer cells = test: Inhibitory activity against proliferation of BT-474 cancer cells (CellTiter-Glo); type: cell-based; details: Homo sapiens, BT-474 ErbB2-overexpressing cancer cells, 120 hours after treatment
Experimental: To evaluate the inhibitory activity of a compound according to the present invention against the proliferation of ErbB2-overexpressing cancer cells, the following experiment were performed.
10% FBS-added McCOY'S 5A was used for SK-BR-3 cancer cells. 20% FBS-added RPMI-1640 was used for BT-474 cancer cells. Transduced Ba/F3 cells were cultured in a RPMI-1640 medium to which 1 μg/ml puromycin (Invitrogen) was added.
48 hours before compound treatment, each type of the SK-BR-3 and BT-474 cells were seeded at 5,000 cells/well in a white clear bottom 96 well plate (Corning). The compound was diluted in dimethyl sulfoxide (SK-BR-3: 3-fold dilution, a total of 12 concentrations, BT-474: […], a total of 12 concentrations) and injected at 1 μl to have the final concentration of 0.2 nM to 5 μM. As for measurement of live cells, 120 hours after treatment with the compound, a CellTiter-Glo luminescent cell-viability reagent (Promega) was used to store the cells at room temperature for 10 minutes, followed by measurement of luminescence using a reader (SynergyNeo, Biotek). Each test was repeated three times.
The result values were calculated as a cell growth rate (%) compared to the control group. A graph was plotted using the GraphPad Prism version 8.3.0 program, and GI50 values were calculated.

GI50 (SK-BR-3 cancer cells) [nM] | GI50 (BT-474 cancer cells) [nM] | SMILES
< 50 | < 50 | C=CC(=O)Nc1cc(Nc2cc(N3OCC[C@@H]3c3cccc(-c4cccc(F)c4)c3)ncn2)c(OC)cc1N1CCN(C)C(=O)C1 [Example 288, (R)-N-(5-((6-(3-(3′-fluoro-[1,1′-biphenyl]-3-yl)-isoxazolidin-2-yl)-pyrimidin-4-yl)-amino)-4-meth-oxy-2-(4-methyl-3-oxopiperazin-1-yl)phenyl)acryl-amide]
< 50 | < 50 | C=CC(=O)Nc1cc(Nc2cc(N3OCC[C@@H]3c3cccc(-c4ccc(F)cc4F)c3)ncn2)c(OC)cc1N(C)CCN(C)C [Example 279, (R)-N-(5-((6-(3-(2′,4′-difluoro-[1,1′-biphenyl]-3-yl)isoxazolidin-2-yl)pyrimidin-4-yl)amino)-2-((2-(dimethylamino)-ethyl)(methyl)-amino)-4-methoxy-phenyl)acrylamide]
< 50 | < 50 | C=CC(=O)Nc1cc(Nc2cc(N3OCC[C@@H]3c3ccc(F)c(-c4cccc(F)c4)c3)ncn2)c(OC)cc1N1CCN(C)CC1 [Example 308, (R)-N-(5-((6-(3-(3′,6-difluoro-[1,1′-biphenyl]-3-yl)-isoxazolidin-2-yl)-pyrimidin-4-yl)-amino)-4-methoxy-2-(4-methylpiper-azin-1-yl)phenyl)-acrylamide]
< 50 | < 50 | C=CC(=O)Nc1cc(Nc2cc(N3OCC[C@@H]3c3cccc(-c4cc(F)cc(F)c4)c3)ncn2)c(OC)cc1N1CCC(N2CCN(C3CC3)[C@@H](C)C2)CC1 [Example 274, N-(2-(4-((S)-4-cyclopropyl-3-methylpiperazin-1-yl)piperidin-1-yl)-5-((6-((R)-3-(3′,5′-difluoro-[1,1′-biphenyl]-3-yl)isoxazolidin-2-yl)pyrimidin-4-yl)amino)-4-meth-oxyphenyl)acryl-amide]
< 50 | < 50 | C=CC(=O)Nc1cc(Nc2cc(N3OCC[C@@H]3c3cccc(C#CC(C)(C)C)c3)ncn2)c(OC)cc1N(C)CCN(C)C [Example 305, (R)-N-(2-((2-(dimethylamino)-ethyl)(methyl)-amino)-5-((6-(3-(3-(3,3-dimethyl-but-1-yn-1-yl)-phenyl)isoxazol-idin-2-yl)pyrim-idin-4-yl)amino)-4-methoxyphenyl)-acrylamide]
< 50 | < 50 | C=CC(=O)Nc1cc(Nc2cc(N3OCC[C@@H]3c3cc(F)cc(Oc4ccn(C)n4)c3)ncn2)c(OC)cc1N1CCC(N2CCN(C3CC3)CC2)CC1 [Example 219, (R)-N-(2-(4-(4-cyclopropylpiper-azin-1-yl)piper-idin-1-yl)-5-((6-(3-(3-fluoro-5-((1-methyl-1H-pyr-azol-3-yl)oxy)-phenyl)isoxazol-idin-2-yl)pyrim-idin-4-yl)amino)-4-methoxyphen-yl)acrylamide]
< 50 | < 50 | C=CC(=O)Nc1cc(Nc2cc(N3OCC[C@@H]3c3cccc(-c4cccc(F)c4)c3)ncn2)c(OC)cc1N1CCN(C)[C@@H](C)C1 [Example 307, N-(2-((S)-3,4-dimethylpiperazin-1-yl)-5-((6-((R)-3-(3′-fluoro-[1,1′-biphenyl]-3-yl)-isoxazolidin-2-yl)-pyrimidin-4-yl)-amino)-4-methoxy-phenyl)acrylamide]
< 50 | < 50 | C=CC(=O)Nc1cc(Nc2cc(N3OCC[C@@H]3c3cccc(-c4cc(F)cc(F)c4)c3)ncn2)c(OC)cc1N1CCN(C)CC1 [Example 276, (R)-N-(5-((6-(3-(3′,5′-difluoro-[1,1′-biphenyl]-3-yl)isoxazolidin-2-yl)pyrimidin-4-yl)-amino)-4-methoxy-2-(4-methylpiper-azin-1-yl)phenyl)-acrylamide]
< 50 | < 50 | C=CC(=O)Nc1cc(Nc2cc(N3OCCC3c3cccc(OCc4ccccn4)c3)ncn2)c(OC)cc1N1CCN(C)CC1 (stereo not shown) [Example compound 96, N-(4-methoxy-2-(4-methylpiperazin-1-yl)-5-((6-(3-(3-(pyridin-2-ylmethoxy)phenyl)isoxazolidin-2-yl)pyrimidin-4-yl)amino)phenyl)acrylamide]
< 50 | < 50 | C=CC(=O)Nc1cc(Nc2cc(N3OCC[C@@H]3c3cccc(-c4ccccc4)c3)ncn2)c(OC)cc1N1CCN(CC)CC1 [Example 216, (R)-N-(5-((6-(3-([1,1′-biphenyl]-3-yl)isoxazolidin-2-yl)pyrimidin-4-yl)-amino)-2-(4-ethyl-piperazin-1-yl)-4-methoxyphenyl)-acrylamide]
< 50 | < 50 | C=CC(=O)Nc1cc(Nc2cc(N3OCC[C@@H]3c3cccc(Oc4cc(F)cc(F)c4)c3)ncn2)c(OC)cc1N1CCN(C)CC1 [Example 225, (R)-N-(5-((6-(3-(3-(3,5-difluoro-phenoxy)phenyl)-isoxazolidin-2-yl)pyrimidin-4-yl)amino)-4-methoxy-2-(4-methylpiperazin-1-yl)phenyl)-acrylamide]
50 to 500 | < 50 | C=CC(=O)Nc1cc(Nc2cc(N3OCC[C@@H]3c3cccc(-c4cccc(F)c4)c3)ncn2)c(OC)cc1N1CC2(CN(C(=O)COC)C2)C1 [Example 323, (R)-N-(5-((6-(3-(3′-fluoro-[1,1′-biphenyl]-3-yl)-isoxazolidin-2-yl)-pyrimidin-4-yl)-amino)-4-methoxy-2-(6-(2-methoxy-acetyl)-2,6-diaza-spiro[3.3]heptan-2-yl)phenyl)acryl-amide]
< 50 | < 50 | COc1cc(N2CCN(C)CC2)c(NC(=O)/C=C/CN(C)C)cc1Nc1cc(N2OCC[C@@H]2c2cccc(-c3cccc(F)c3)c2)ncn1 [Example 285, (R,E)-4-(dimethyl-amino)-N-(5-((6-(3-(3′-fluoro-[1,1′-biphenyl]-3-yl)-isoxazolidin-2-yl)-pyrimidin-4-yl)-amino)-4-methoxy-2-(4-methylpiper-azin-1-yl)phenyl)-but-2-enamide]
50 to 500 | < 50 | C=CC(=O)Nc1cc(Nc2cc(N3OCC[C@@H]3c3cccc(-c4cc(F)cc(C(F)(F)F)c4)c3)ncn2)c(OC)cc1N1CCN(C)CC1 [Example 283, (R)-N-(5-((6-(3-(3′-fluoro-5′-(trifluoromethyl)-[1,1′-biphenyl]-3-yl)isoxazolidin-2-yl)pyrimidin-4-yl)-amino)-4-methoxy-2-(4-methylpiper-azin-1-yl)phenyl)-acrylamide]
< 50 | < 50 | C=CC(=O)Nc1cc(Nc2cc(N3OCC[C@@H]3c3cccc(-c4cc(F)cc(F)c4)c3)ncn2)c(OC)cc1N1CCN(C(C)=O)CC1 [Example 275, (R)-N-(2-(4-acetyl-piperazin-1-yl)-5-((6-(3-(3′,5′-difluoro-[1,1′-biphenyl]-3-yl)-isoxazolidin-2-yl)-pyrimidin-4-yl)-amino)-4-meth-oxyphenyl)acryl-amide]
< 50 | < 50 | C=CC(=O)Nc1cc(Nc2cc(N3OCC[C@@H]3c3cc(F)cc(Oc4cccc(F)c4)c3)ncn2)c(OC)cc1N1CCN(C)[C@H](C)C1 [Example 221, N-(2-((R)-3,4-dimethylpiper-azin-1-yl)-5-((6-((R)-3-(3-fluoro-5-(3-fluorophen-oxy)phenyl)-isox-azolidin-2-yl)pyr-imidin-4-yl)-amino)-4-methoxy-phenyl)acrylamide]
< 50 | < 50 | C=CC(=O)Nc1cc(Nc2cc(N3OCC[C@@H]3c3cccc(-c4cccc(F)c4)c3)ncn2)c(OC)cc1N1CCC(N2CCC2)CC1 [Example 317, (R)-N-(2-(4-(azeti-din-1-yl)piperidin-1-yl)-5-((6-(3-(3′-fluoro-[1,1′-biphen-yl]-3-yl)isoxazol-idin-2-yl)pyrim-idin-4-yl)amino)-4-methoxyphen-yl)acrylamide]
< 50 | < 50 | C=CC(=O)Nc1cc(Nc2cc(N3OCC[C@@H]3c3cccc(-c4ccc(OC)nc4)c3)ncn2)c(OC)cc1N1CCN(C)CC1 [Example 298, (R)-N-(4-methoxy-5-((6-(3-(3-(6-methoxypyridin-3-yl)phenyl)-isox-azolidin-2-yl)-pyrimidin-4-yl)-amino)-2-(4-meth-ylpiperazin-1-yl)-phenyl)acrylamide]
< 50 | < 50 | C=CC(=O)Nc1cc(Nc2cc(N3OCC[C@@H]3c3ccc(F)c(-c4cccc(F)c4)c3)ncn2)c(OC)cc1N(C)CCN(C)C [Example 310, (R)-N-(5-((6-(3-(3′,6-difluoro-[1,1′-biphenyl]-3-yl)-isoxazolidin-2-yl)-pyrimidin-4-yl)-amino)-2-((2-(dimethylamino)-ethyl)(methyl)-amino)-4-methoxy-phenyl)acrylamide]
< 50 | < 50 | C=CC(=O)Nc1cc(Nc2cc(N3OCC[C@@H]3c3cccc(-c4cccc(F)c4)c3)ncn2)c(OC)cc1N1CCN(C)CC1 [Example 242, (R)-N-(5-((6-(3-(3′-fluoro-[1,1′-biphen-yl]-3-yl)isoxazol-idin-2-yl)pyrim-idin-4-yl)amino)-4-methoxy-2-(4-methylpiperazin-1-yl)phenyl)-acrylamide]
